These results are taken from ChEMBL document CHEMBL5584296, “Discovery of Novel Pyrimidine-Based Derivatives as Nav1.2 Inhibitors with Efficacy in Mouse Models of Epilepsy” (J Med Chem, 2024).

For assay [1], the target named is T1, Sodium channel protein type 2 subunit alpha (Homo sapiens, UniProt Q99250). The assay is described as follows: Inhibition of human Nav1.2 expressed in HEK293 cells assessed as test to control ratio at 10 uM measured after 5 mins by whole cell voltage clamp electrophysiological analysis. Format: cell-based.
Target sequence in this assay (Q99250 whole entry, looked up): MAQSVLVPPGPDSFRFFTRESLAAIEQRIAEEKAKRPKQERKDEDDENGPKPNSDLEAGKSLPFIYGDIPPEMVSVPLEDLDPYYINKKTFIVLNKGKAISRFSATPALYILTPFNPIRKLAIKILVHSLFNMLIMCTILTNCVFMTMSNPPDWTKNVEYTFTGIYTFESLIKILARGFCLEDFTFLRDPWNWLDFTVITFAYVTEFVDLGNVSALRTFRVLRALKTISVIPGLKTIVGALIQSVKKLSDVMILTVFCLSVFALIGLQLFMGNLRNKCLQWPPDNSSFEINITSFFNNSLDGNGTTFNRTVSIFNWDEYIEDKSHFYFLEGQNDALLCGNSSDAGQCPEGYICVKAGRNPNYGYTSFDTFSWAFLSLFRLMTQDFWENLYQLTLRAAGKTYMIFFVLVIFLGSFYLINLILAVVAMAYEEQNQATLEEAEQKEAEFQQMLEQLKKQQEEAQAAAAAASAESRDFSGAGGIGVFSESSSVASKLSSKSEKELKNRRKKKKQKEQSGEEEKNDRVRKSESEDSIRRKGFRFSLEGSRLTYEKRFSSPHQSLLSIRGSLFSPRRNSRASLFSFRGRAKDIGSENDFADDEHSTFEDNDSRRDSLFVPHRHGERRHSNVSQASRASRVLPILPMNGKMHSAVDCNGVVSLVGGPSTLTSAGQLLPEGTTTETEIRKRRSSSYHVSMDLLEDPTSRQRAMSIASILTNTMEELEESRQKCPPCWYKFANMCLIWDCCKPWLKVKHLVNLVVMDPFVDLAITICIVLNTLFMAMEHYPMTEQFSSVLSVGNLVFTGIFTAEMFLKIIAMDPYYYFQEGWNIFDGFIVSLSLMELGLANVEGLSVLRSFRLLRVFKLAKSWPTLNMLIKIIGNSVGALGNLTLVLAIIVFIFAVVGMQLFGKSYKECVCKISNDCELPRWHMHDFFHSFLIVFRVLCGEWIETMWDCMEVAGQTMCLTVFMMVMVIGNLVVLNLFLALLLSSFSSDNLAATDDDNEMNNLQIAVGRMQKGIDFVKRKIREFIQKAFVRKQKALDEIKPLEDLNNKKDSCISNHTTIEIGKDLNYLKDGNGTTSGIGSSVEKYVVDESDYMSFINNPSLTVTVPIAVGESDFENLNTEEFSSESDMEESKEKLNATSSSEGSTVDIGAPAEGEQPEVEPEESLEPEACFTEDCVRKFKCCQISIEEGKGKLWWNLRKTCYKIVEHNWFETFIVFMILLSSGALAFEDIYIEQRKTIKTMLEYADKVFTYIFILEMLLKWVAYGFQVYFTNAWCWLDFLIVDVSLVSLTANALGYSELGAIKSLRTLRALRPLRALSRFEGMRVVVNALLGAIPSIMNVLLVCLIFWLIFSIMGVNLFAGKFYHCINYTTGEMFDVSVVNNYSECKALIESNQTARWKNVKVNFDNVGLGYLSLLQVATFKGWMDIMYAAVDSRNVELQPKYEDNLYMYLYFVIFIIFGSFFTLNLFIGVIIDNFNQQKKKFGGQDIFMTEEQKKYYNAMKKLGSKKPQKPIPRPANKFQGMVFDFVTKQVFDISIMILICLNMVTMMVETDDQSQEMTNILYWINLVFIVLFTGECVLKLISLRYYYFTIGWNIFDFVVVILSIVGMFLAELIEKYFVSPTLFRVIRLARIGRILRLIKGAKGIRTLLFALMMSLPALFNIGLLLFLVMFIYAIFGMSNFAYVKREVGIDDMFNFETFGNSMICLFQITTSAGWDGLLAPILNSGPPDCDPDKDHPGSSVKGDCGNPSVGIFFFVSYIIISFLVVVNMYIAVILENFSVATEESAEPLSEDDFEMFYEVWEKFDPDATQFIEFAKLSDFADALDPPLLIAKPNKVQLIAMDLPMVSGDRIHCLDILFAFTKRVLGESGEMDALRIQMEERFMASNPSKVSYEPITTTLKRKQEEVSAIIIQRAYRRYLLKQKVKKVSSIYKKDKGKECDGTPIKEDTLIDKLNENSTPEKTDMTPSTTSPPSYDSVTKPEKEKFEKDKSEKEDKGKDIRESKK
For assay [2], the target named is T1, Sodium channel protein type 2 subunit alpha. The assay is described as follows: Inhibition of human Nav1.2 expressed in HEK293 cells assessed as test to control ratio at 1 uM measured after 5 mins by whole cell voltage clamp electrophysiological analysis. It counts as cell-based.
Target sequence in this assay (Q99250 whole entry, looked up): as above
Assay [3] shares this target. The assay can be described thus: Inhibition of human Nav1.2 expressed in HEK293 cells assessed as test to control ratio at 0.1 uM measured after 5 mins by whole cell voltage clamp electrophysiological analysis. It counts as cell-based.
Target sequence in this assay (Q99250 whole entry, looked up): as above
The target is the same in assay [4]. The assay is described as follows: Inhibition of human Nav1.2 expressed in HEK293 cells at 10 uM measured after 5 mins by whole cell voltage clamp electrophysiological analysis relative to control. Format: cell-based.
Target sequence in this assay (Q99250 whole entry, looked up): as above
For assay [5] the target is unchanged. The assay is described as follows: Inhibition of Nav1.2 (unknown origin) at 100 uM relative to control.
Target sequence in this assay (Q99250 whole entry, looked up): as above
Assay [6] has the same target. The assay is described as follows: Inhibition of Nav1.2 (unknown origin).
Target sequence in this assay (Q99250 whole entry): as the sequence (Q99250 whole entry, looked up) above
Assay [7] has as its system Mus musculus. The assay is described as follows: Antiepileptic activity in MES-induced seizure male ICR mouse model assessed as protection against tonic hind limb extension at 300 mg/kg, ip measured after 30 mins relative to control. It counts as functional. The conditions noted are these: 0.5 h.
Assay [8] concerns Mus musculus. The assay is described as follows: Antiepileptic activity in 6 Hz(32 mA)-induced seizure male C57BL mouse model assessed as protection against seizure at 200 mg/kg, ip administered for 30 mins by epilepsy test. The conditions noted are these: 0.5 h. Format: functional.

pIC50: −log10 of the molar value.

What is called inhibition is how much of the control response was suppressed. Low values mean a response near the control, high ones a response far below the control. For orientation: pIC50 means the IC50 on a negative log10 scale, so that one unit is a factor of ten.

As for `COc1cccc(-c2cc(N3CCCc4ccc(C)cc4C3)ncn2)c1`, the T/C in assay [1] worked out at 0.13; in assay [2] it was 0.43; in assay [3] it was 0.8.

In the case of `CN1C[C@H](CNC(=O)OCc2ccccc2)C[C@@H]2c3cccc4c3c(cn4C)C[C@H]21`, the T/C in assay [1] was found to be 0.01.

For the compound `COc1cccc(-c2cc(N3CCc4cc(OC)c(OC)cc4C3)nc(N)n2)c1`, the T/C is 0.01 in assay [1], 0.35 in assay [2] and 0.67 in assay [3]. For the same compound, the inhibition in assay [4] came to 99%.

For `COc1cccc(-c2cc(N3CCCc4ccc(F)cc4C3)nc(N)n2)c1`, the T/C was 0 in assay [1], 0.03 in assay [2] and 0.84 in assay [3].

With `COc1cccc(-c2cc(N3CCCc4cc(F)c(F)cc4C3)nc(N)n2)c1`, the values for the T/C in assay [1] and in assay [2] were 0.43 and 0.65, respectively.

As to `COc1cccc(-c2cc(N3CCCc4ccccc4C3)nc(NS(=O)(=O)c3ccc(Cl)cc3)n2)c1`, in assay [1], the T/C stood at 0.65.

Consider `Nc1nc(-c2cccn2C2CCCCO2)cc(N2CCCc3ccccc3C2)n1` (stereo not drawn), for which the T/C is 0.19 in assay [1] and 0.77 in assay [2].

Regarding `COc1cccc(-c2cc(N3CCC4(CCOCC4)C3)nc(N)n2)c1`, the T/C came to 0.57 in assay [1], 0.94 in assay [2] and 0.97 in assay [3].

Consider `CC(C)Oc1ccc(-c2cc(N3CCCc4ccccc4C3)nc(N)n2)cc1`, for which the T/C in assay [1] came out at 0.37; in assay [2] it was 0.87.

Regarding `O=C(CC(c1ccccc1)c1ccccc1)N1CCN(CCO)CC1`, the inhibition in assay [5] is 59.1%.

Turning to `COc1cccc(-c2cc(N3CCCc4ccc(OCc5ccccc5)cc4C3)nc(N)n2)c1`, the values for the T/C in assay [1], in assay [2] and in assay [3] were 0.02, 0.11 and 0.77, respectively.

In the case of `COc1cccc(-c2cc(N3CCCc4c(cc(OC)cc4OC)C3)nc(N)n2)c1`, the T/C in assay [1] stood at 0.14; in assay [2] it was 0.53.

`COc1cccc(-c2cc(N3CCc4nc(C)sc4C3)nc(N)n2)c1`: the T/C in assay [1] was 0.79.

For `COc1cccc(-c2cc(N3CCC(C)c4ccccc4C3)nc(N)n2)c1` (stereo not drawn), the T/C in assay [1] was found to be 0.11; in assay [2] it was 0.12; in assay [3], 0.95.

`Cc1cccc(-c2cc(N3CCCc4ccccc4C3)nc(N)n2)c1`: the results for the T/C in assay [1], in assay [2] and in assay [3] were 0.03, 0.24 and 0.85, respectively.

As to `CCCc1ccc(S(=O)(=O)Nc2nc(-c3cccc(OC)c3)cc(N3CCCc4ccccc4C3)n2)cc1`, the T/C in assay [1] amounted to 0.08; in assay [2], 0.12; in assay [3], 0.86. The compound further showed an inhibition in assay [4] of 92%.

Regarding `COc1cccc(-c2cc(N3CCCc4ccc(C)cc4C3)nc(SC)n2)c1`, in assay [1], the T/C was 0.66.

As for `COc1cccc(-c2cc(N3CC4CC(C3)c3ccccc34)nc(NS(=O)(=O)c3ccc(C)cc3C)n2)c1`, the T/C in assay [1] was determined as 0.45; in assay [2], 0.84.

In the case of `COc1cccc(-c2cc(N3CCCc4ccc(C)cc4C3)nc(OC)n2)c1`, the T/C in assay [1] stood at 0.11; in assay [2], 0.43; in assay [3] it was 0.88.

`Nc1nc(-c2ccc(OC3CCCCO3)cc2)cc(N2CCCc3ccccc3C2)n1` (stereo not drawn): the T/C in assay [1] turned out to be 0.14; in assay [2], 0.76.

Consider `Nc1cnc(-c2cc(Cl)cc(Cl)c2Cl)c(N)n1` [ELPETRIGINE], for which the pIC50 in assay [6] is 5.22.

On to `Nc1nc(-c2ccc3c(c2)CCO3)cc(N2CCCc3ccccc3C2)n1`, for which the T/C in assay [1] was found to be 0.07; in assay [2], 0.82.

Regarding `COc1cccc(-c2cc(N3CC4CC(C3)c3ccccc34)nc(NS(=O)(=O)c3ccc(C)cc3)n2)c1`, the T/C in assay [1] came to 0.31; in assay [2], 0.71.

For the compound `COc1cccc(-c2cc(N3CCCc4ccc(C)cc4C3)nc(C#N)n2)c1`, in assay [1], the T/C was 0.86.

`Nc1nc(-c2cccc(OC(F)(F)F)c2)cc(N2CCCc3ccccc3C2)n1`: the T/C in assay [1] came out at 0.07; in assay [2], 0.81.

Take `Nc1nc(-c2ccc(Oc3ccccc3)cc2)cc(N2CCCc3ccccc3C2)n1`: the T/C in assay [1] was 0.46; in assay [2], 0.79.

On to `Nc1nc(-c2ccc(F)cc2)cc(N2CCCc3ccccc3C2)n1`, for which the results for the T/C in assay [1], in assay [2] and in assay [3] were 0.18, 0.46 and 0.9, respectively.

For `COc1cccc(-c2cc(N3CCCc4ccccc4C3)nc(NS(=O)(=O)c3ccc(F)cc3)n2)c1`, the T/C in assay [1] was determined as 0.36; in assay [2], 0.95; in assay [3], 0.95.

Regarding `CCCC(CCC)C(=O)O` [VALPROIC ACID], the Activity in assay [7] and in assay [8] was 100% in each case.

Regarding `COc1cccc(-c2cc(NCCc3ccc4c(c3)OCO4)nc(N)n2)c1`, the T/C in assay [1] was 0.05; in assay [2], 0.34; in assay [3], 0.86.

For `COc1cccc(-c2cc(N3CCCc4ccc(C)cc4C3)nc(-c3ccccc3)n2)c1`, in assay [1], the T/C was found to be 0.91.

Turning to `COc1cccc(-c2cc(NCc3ccc(OC)c(OC)c3)nc(N)n2)c1`, the T/C was 0.24 in assay [1], 0.4 in assay [2] and 0.7 in assay [3]. In addition, in assay [4], the inhibition came to 76%.

With `COc1cccc(-c2nc(N)nc(N3CCCc4ccc(C)cc4C3)c2F)c1`, the figures for the T/C in assay [1], in assay [2] and in assay [3] were 0.01, 0.19 and 0.88, respectively.

Regarding `COc1cccc(-c2cc(N3CC4CC(C3)c3ccccc34)nc(NS(=O)(=O)c3cccc(C)c3)n2)c1`, the T/C in assay [1] is 0.33; in assay [2], 0.68.

As to `Nc1nc(-c2ccc3c(c2)OCCC3)cc(N2CCCc3ccccc3C2)n1`, the T/C in assay [1] is 0.07; in assay [2], 0.72.

As to `Nc1nc(-c2cccc3ccccc23)cc(N2CCCc3ccccc3C2)n1`, the T/C in assay [1] amounted to 0.08; in assay [2], 0.85.

Consider `COc1cccc(-c2cc(N3CCCc4ccc(C)cc4C3)nc(S(C)(=O)=O)n2)c1`, for which the T/C in assay [1] was 0.81.

In the case of `COc1cccc(-c2cc(N3CC4CC(C3)c3ccccc34)nc(NS(=O)(=O)c3ccc(F)cc3)n2)c1`, the T/C in assay [1] is 0.28; in assay [2], 0.56.

Regarding `COc1cccc(-c2cc(N3CCCc4cc(F)ccc4C3)nc(N)n2)c1`, the values for the T/C in assay [1], in assay [2] and in assay [3] were 0.04, 0.03 and 0.39, respectively.

The compound `Cc1cccc(C)c1OCCCNCc1cc(C(C)(C)C)c(O)c(C(C)(C)C)c1` showed a pIC50 in assay [6] of 6.74.

For `COc1cccc(-c2cc(NCCc3ccc(OC)c(OC)c3)nc(N)n2)c1`, the T/C was found to be 0.15 in assay [1], 0.35 in assay [2] and 0.61 in assay [3].

In the case of `COc1cccc(-c2cc(N3CCc4nc(Cl)ccc4C3)nc(N)n2)c1`, the T/C in assay [1] is 0.18; in assay [2] it was 0.71; in assay [3], 0.89.

Consider `COc1cccc(-c2cc(N3Cc4ccccc4C3)nc(N)n2)c1`, for which, in assay [1], the T/C amounted to 0.75.

For `COc1cccc(-c2cc(N3CCc4ccccc4C3)nc(N)n2)c1`, the T/C in assay [1] stood at 0.13; in assay [2], 0.35; in assay [3] it was 0.68.
